Test results as given in US11572590B2, “Methods for evaluating tumor cell spheroids using 3D microfluidic cell culture device” (Dana-Farber Cancer Institute, Inc., priority 2017, dated 2023).
Read-outs that look alike come from different tables or passages of the source.

Key:
off-target kinases [1] = target: T1, off-target kinases (Homo sapiens, UniProt P36897); assay: SelectScreen Kinase Profiling, single point inhibition and IC50 for off-target kinases; format: biochemical; details: TGFBR1 (ALK5), LanthaScreen Binding
T1 sequence (P36897 34-503): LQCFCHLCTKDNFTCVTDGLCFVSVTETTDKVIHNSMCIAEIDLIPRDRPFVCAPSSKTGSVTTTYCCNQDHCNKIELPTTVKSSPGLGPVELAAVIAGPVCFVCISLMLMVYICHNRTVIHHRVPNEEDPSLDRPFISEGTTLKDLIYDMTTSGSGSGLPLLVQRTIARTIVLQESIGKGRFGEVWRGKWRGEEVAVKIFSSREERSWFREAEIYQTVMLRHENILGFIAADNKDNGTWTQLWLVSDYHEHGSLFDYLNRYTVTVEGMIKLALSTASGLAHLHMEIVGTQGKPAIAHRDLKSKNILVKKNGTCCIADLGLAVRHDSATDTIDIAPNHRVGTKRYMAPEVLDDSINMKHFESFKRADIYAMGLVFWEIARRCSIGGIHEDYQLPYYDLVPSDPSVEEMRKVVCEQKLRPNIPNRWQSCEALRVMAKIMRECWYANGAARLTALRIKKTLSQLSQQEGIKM

off-target kinases [2] = target: T2, off-target kinases (Homo sapiens, UniProt Q99683); assay: as above; format: biochemical; details: MAP3K5 (ASK1), LanthaScreen Binding
T2 sequence (Q99683 1-1374): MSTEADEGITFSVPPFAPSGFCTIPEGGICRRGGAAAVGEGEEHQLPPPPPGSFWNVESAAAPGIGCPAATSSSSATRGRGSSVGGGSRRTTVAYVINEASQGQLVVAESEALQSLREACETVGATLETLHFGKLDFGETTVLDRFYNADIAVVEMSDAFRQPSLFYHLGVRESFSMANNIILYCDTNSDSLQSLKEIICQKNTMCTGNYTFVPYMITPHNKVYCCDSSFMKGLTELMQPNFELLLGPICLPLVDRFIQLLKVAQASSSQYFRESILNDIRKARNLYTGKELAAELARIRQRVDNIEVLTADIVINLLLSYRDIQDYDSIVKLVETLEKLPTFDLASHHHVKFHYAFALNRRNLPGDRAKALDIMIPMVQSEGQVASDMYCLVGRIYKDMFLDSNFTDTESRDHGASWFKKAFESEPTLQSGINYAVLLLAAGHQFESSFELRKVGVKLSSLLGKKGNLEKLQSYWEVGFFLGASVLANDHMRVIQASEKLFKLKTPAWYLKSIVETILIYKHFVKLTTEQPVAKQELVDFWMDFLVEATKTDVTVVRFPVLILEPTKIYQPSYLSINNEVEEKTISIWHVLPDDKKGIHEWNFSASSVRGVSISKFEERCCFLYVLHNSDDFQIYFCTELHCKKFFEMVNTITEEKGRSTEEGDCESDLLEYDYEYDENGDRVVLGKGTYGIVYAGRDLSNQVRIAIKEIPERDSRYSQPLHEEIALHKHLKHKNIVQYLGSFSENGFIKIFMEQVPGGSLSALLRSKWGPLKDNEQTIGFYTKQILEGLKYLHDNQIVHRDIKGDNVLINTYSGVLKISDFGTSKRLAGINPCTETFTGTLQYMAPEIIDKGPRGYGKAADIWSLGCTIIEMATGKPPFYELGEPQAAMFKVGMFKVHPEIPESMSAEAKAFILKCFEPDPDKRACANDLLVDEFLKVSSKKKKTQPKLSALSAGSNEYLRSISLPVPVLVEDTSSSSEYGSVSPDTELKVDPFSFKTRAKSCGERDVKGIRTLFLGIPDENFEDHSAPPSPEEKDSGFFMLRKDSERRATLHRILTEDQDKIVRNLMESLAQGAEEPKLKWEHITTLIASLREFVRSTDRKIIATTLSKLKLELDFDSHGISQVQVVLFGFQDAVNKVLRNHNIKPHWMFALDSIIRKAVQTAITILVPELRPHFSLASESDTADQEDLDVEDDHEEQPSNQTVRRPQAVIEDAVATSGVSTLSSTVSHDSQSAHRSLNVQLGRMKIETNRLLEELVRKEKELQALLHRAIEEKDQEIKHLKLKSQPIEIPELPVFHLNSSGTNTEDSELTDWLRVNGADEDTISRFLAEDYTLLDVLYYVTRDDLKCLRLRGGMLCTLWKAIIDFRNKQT

N#Cc1cc(-c2ncnc(Nc3ccc(N4CCN(C5COC5)CC4)cc3)n2)ccc1OC1CCOCC1 [Compound 1, 5-(4-((4-(4-(oxetan-3-yl)piperazin-1-yl)phenyl)amino)-1,3,5-triazin-2-yl)-2-((tetrahydro-2H-pyran-4-yl)oxy)benzonitrile]
inhibition (off-target kinases [1]; read-out: % Inhibition 1): 56%
inhibition (off-target kinases [1]; read-out: % Inhibition 2): 58%
inhibition (off-target kinases [1]; read-out: % Inhibition Avg): 57%
inhibition (off-target kinases [2]; read-out: % Inhibition 1): 7%
inhibition (off-target kinases [2]; read-out: % Inhibition 2): 8%
inhibition (off-target kinases [2]; read-out: % Inhibition Avg): 7%
